The text below walks through data of EP4603105A1, “PHARMACEUTICAL COMPOSITION CONTAINING CYCLIC COMPOUND HAVING SELECTIVE KRAS INHIBITORY EFFECT AGAINST HRAS AND NRAS” (CHUGAI SEIYAKU KABUSHIKI KAISHA, priority 2022, dated 2024).

Usually Kd stands for the constant that tells how readily two partners part at equilibrium. The low end stands for a tighter complex, the high end for a looser complex. In general, IC50 refers to the point on the concentration scale where inhibition reaches its midpoint. A higher IC50 goes with weaker potency.

The target of test [1] is GDP-bound KRAS wild-type protein (Homo sapiens, UniProt P01116). The test can be described thus: Binding to KRAS by surface plasmon resonance (SPR), dissociation constant KD. The note with it: 1:1 binding model. A digest of the protocol:
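Running buffer contained 10 µM GDP and 10 mM MgCl2 to keep RAS in the GDP state, with 4% DMSO at pH 7.4. Compounds were flowed at 100 µL/min in 75 s steps of rising concentration over captured biotin-Avi RAS at 30°C. Sensorgrams were fitted 1:1 for KD.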
In general terms: Surface plasmon resonance follows binding to a sensor surface in real time, without labels.

Test [2] concerns the target GDP-bound NRAS wild-type protein (Homo sapiens, UniProt P01111). Briefly: Binding to NRAS by surface plasmon resonance (SPR), KD and KD ratio to KRAS. A digest of the protocol: (§1)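 Compound binding is evaluated by SPR single-cycle kinetics, with concentrations added intermittently from low to high for 75 s each. Target surfaces carry GDP-loaded biotinylated Avi-RAS at about 100–300 RU, regenerated after each cycle; temperature 30°C. A 1:1 binding model gives KD.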

In test [3] the target is HRAS wild-type protein (Homo sapiens, UniProt P01112). The test can be described thus: Binding to HRAS by surface plasmon resonance (SPR), KD and KD ratio to KRAS. The method in brief:
as §1

For test [4], the system named is human lung cancer strain NCI-H441. It is filed as cell-based. The method in brief:
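Proliferation was scored by […] measured after the reagent was added to cultures kept at 37°C in 5% carbon dioxide.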

The mark [5] stands for this setting: ratio of KD for GDP-bound NRAS wild-type protein to KD for KRAS.
Setting [6] is: ratio of KD for HRAS wild-type protein to KD for KRAS.
Where [7] appears, read: ratio of KD value for GDP-bound NRAS wild-type protein to KD value for KRAS (SPR).
Setting [8] is: ratio of KD value for HRAS wild-type protein to KD value for KRAS (SPR).
Setting [9] is: ratio of the KD value with respect to GDP-bound NRAS wild-type protein to the KD value with respect to KRAS.
Where [10] appears, read: ratio of the KD value with respect to HRAS wild-type protein to the KD value with respect to KRAS.

GDP-bound KRAS wild-type protein, sequence (P01116 1-188 isoform P01116-2): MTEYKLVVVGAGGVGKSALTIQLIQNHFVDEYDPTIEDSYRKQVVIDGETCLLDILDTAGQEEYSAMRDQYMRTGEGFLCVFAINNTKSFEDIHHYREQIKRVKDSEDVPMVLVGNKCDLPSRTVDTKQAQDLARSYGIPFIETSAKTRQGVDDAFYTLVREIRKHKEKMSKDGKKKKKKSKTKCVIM
GDP-bound NRAS wild-type protein, sequence (P01111 whole entry): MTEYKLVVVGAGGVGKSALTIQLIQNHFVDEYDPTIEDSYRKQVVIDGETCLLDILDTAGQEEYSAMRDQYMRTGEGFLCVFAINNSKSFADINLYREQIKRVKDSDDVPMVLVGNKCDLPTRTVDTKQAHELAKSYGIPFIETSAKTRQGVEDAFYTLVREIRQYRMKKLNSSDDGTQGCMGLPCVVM
HRAS wild-type protein, sequence (P01112 whole entry): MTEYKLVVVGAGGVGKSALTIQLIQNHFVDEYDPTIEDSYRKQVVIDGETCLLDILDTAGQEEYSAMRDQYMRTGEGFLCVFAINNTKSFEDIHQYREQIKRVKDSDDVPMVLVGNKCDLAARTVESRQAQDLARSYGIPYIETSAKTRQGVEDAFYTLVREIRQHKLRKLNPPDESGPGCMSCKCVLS

In test [1], `CCO[C@@H]1C[C@H]2C(=O)NC3(CC(C)(C)C3)C(=O)N(C)[C@@H](C3CCCC3)C(=O)N(C)[C@H](C(=O)N(C)C)CC(=O)N(C)[C@H]3CCCCC/C=C/c4ccc(cc4)C[C@@H](C(=O)N(C)CC(=O)N[C@@H](CCc4ccc(Cl)c(Cl)c4)C(=O)N2C1)N1CC/C=C\C[C@@H](C1=O)N(C)C(=O)CN(C)C(=O)[C@H]([C@@H](C)CC)NC3=O` [PP3057] showed a Kd of 0.17 nM. Besides, the “NRAS /KRAS” value in test [2] (setting [5]) is “A (a compound having 10 or more and less than 20 is denoted as A)”. In test [3] (setting [6]), the “HRAS /KRAS” value is “B (a compound having 3 or more and less than 10 is denoted as B)”. For the same compound, inhibition in test [4] was half-maximal at 8.5 nM (IC50).
Turning to `CCO[C@@H]1C[C@H]2C(=O)NC3(CC(C)(C)C3)C(=O)N(C)[C@@H](C3CCCC3)C(=O)N(C)[C@H](C(=O)N(C)C)CC(=O)N(C)[C@@H]([C@@H](C)OC)C(=O)N[C@@H]([C@@H](C)CC)C(=O)N3CCC[C@H]3C(=O)N(C)[C@H]3C/C=C\CCN(C3=O)[C@@H](Cc3ccc(C(F)(F)F)cc3)C(=O)N(C)CC(=O)N[C@@H](CCc3ccc(C(F)(F)F)c(Cl)c3)C(=O)N2C1` [PP3206], the Kd in test [1] was determined as 0.43 nM. The “NRAS /KRAS” value in test [2] (setting [5]) was “A (a compound having 10 or more and less than 20 is denoted as A)”. Also, the “HRAS /KRAS” value in test [3] (setting [6]) was “A (a compound having 10 or more and less than 20 is denoted as A)”. The same compound displayed an IC50 in test [4] of 19.2 nM.
With `CC[C@H](C)[C@@H]1NC(=O)[C@H](CC2CC2)N(C)C(=O)C[C@@H](C(=O)N(C)C)N(C)C(=O)[C@H](C2CCCC2)N(C)C(=O)C2(CCC2)NC(=O)[C@@H]2C[C@H](C)CN2C(=O)[C@H](CCc2ccc(C(F)(F)F)c(OC)c2)NC(=O)CN(C)C(=O)[C@H](Cc2ccc(C)cc2)N2CC/C=C\C[C@@H](C2=O)N(C)C(=O)CN(C)C1=O` [PP1861], in test [1] (Single Cycle Kinetics), the Kd turned out to be 0.091 nM. The “NRAS /KRAS” value in test [2] (setting [7]) was “A (a compound having 10 or more and less than 20 is denoted as A)”. Besides, in test [3] (setting [8]), the “HRAS /KRAS” value was “B (a compound having 3 or more and less than 10 is denoted as B)”. The compound further yielded an IC50 in test [4] of 25.7 nM.
As to `CCO[C@@H]1C[C@H]2C(=O)N(C)C3(CCC3)C(=O)N(C)[C@@H](C3CCCC3)C(=O)N(C)[C@H](C(=O)N(C)C)CC(=O)N(C)[C@@H](CC3CC3)C(=O)N[C@@H]([C@@H](C)CC)C(=O)N(C)CC(=O)N(C)[C@H]3C/C=C\CCN(C3=O)[C@@H](Cc3ccc(C)cc3)C(=O)N(C)CC(=O)N[C@@H](CCc3cc(F)c(C(F)(F)F)c(F)c3)C(=O)N2C1` [PP1795], the affinity in test [1] (Single Cycle Kinetics), expressed as Kd, was 0.031 nM. Further, in test [2] (setting [7]), the “NRAS /KRAS” value is “A (a compound having 10 or more and less than 20 is denoted as A)”. The “HRAS /KRAS” value in test [3] (setting [8]) was “B (a compound having 3 or more and less than 10 is denoted as B)”. This compound gave an IC50 in test [4] of 3 nM.
Take `CCO[C@@H]1C[C@H]2C(=O)NC3(CC(C)(C)C3)C(=O)N(C)[C@@H](C(CC)CC)C(=O)N(C)[C@H](C(=O)N(C)C)CC(=O)N(C)[C@@H](CC(C)C)C(=O)N[C@@H]([C@@H](C)CC)C(=O)N(C)CC(=O)N(C)[C@H]3C/C=C\CCN(C3=O)[C@@H](Cc3ccc(C)cc3)C(=O)N(C)CC(=O)N[C@@H](CCc3ccc(C(F)(F)F)c(Cl)c3)C(=O)N2C1` [PP2148]: in test [1] (Single Cycle Kinetics), the affinity, expressed as Kd, was 0.34 nM. The “NRAS /KRAS” value in test [2] (setting [9]) was “A (a compound having 10 or more and less than 20 is denoted as A)”. In test [3] (setting [10]), the “HRAS /KRAS” value is “A (a compound having 10 or more and less than 20 is denoted as A)”. Moreover, the IC50 in test [4] came to 41.5 nM.
Take `CCC[C@H]1C(=O)N[C@@H]([C@@H](C)CC)C(=O)N(C)CC(=O)N(C)[C@H]2C/C=C\CCN(C2=O)[C@@H](Cc2ccc(C)cc2)C(=O)N(C)CC(=O)N[C@@H](CCc2ccc(C(F)(F)F)c(OC)c2)C(=O)N2C[C@@H](C)C[C@H]2C(=O)NC2(CC(C)(C)C2)C(=O)N(C)[C@@H](C2CCCC2)C(=O)N(C)[C@H](C(=O)N(C)C)CC(=O)N1C` [PP1888]: the Kd in test [1] (Single Cycle Kinetics) turned out to be 0.074 nM. Moreover, in test [2] (setting [7]), the “NRAS /KRAS” value was “A (a compound having 10 or more and less than 20 is denoted as A)”. Also, in test [3] (setting [8]), the “HRAS /KRAS” value was “B (a compound having 3 or more and less than 10 is denoted as B)”. In addition, the IC50 in test [4] was 3.5 nM.
`CC[C@H](C)[C@@H]1NC(=O)[C@H](CC)N(C)C(=O)C[C@@H](C(=O)N2CCOCC2)N(C)C(=O)[C@H](C2CCCC2)N(C)C(=O)C2(CCCC2)NC(=O)[C@@H]2CCCN2C(=O)[C@H](CCc2cc(F)c(C(F)(F)F)c(F)c2)NC(=O)CN(C)C(=O)[C@H](Cc2ccc(C(F)(F)F)cc2)N2CCCC[C@@H](C2=O)N(C)C(=O)CN(C)C1=O` [PP0550]: in test [1] (Single Cycle Kinetics), binding was characterised by a dissociation constant (Kd) of 0.057 nM. In addition, in test [2] (setting [9]), the “NRAS /KRAS” value is “B (a compound having 3 or more and less than 10 is denoted as B)”. In test [3] (setting [10]), the “HRAS /KRAS” value was “B (a compound having 3 or more and less than 10 is denoted as B)”. In test [4], this compound registered an IC50 of 4.9 nM.
Take `CCC[C@H]1C(=O)N[C@@H]([C@@H](C)CC)C(=O)N(C)CC(=O)N(C)[C@H]2C/C=C\CCN(C2=O)[C@@H](Cc2ccc(C)cc2)C(=O)N(C)CC(=O)N[C@@H](CCc2ccc(C(F)(F)F)c(Cl)c2)C(=O)N2C[C@H](C)C[C@H]2C(=O)NC2(CC(C)(C)C2)C(=O)N(C)[C@@H](C2CCCC2)C(=O)N(C)[C@H](C(=O)N(C)C)CC(=O)N1C` [PP2210]: the affinity in test [1] (Single Cycle Kinetics), expressed as Kd, was 0.13 nM. For the same compound, the “NRAS /KRAS” value in test [2] (setting [9]) was “A (a compound having 10 or more and less than 20 is denoted as A)”. In test [3] (setting [10]), the “HRAS /KRAS” value is “B (a compound having 3 or more and less than 10 is denoted as B)”. In addition, in test [4], inhibition was half-maximal at 6.2 nM (IC50).
For the compound `CC[C@H](C)[C@@H]1NC(=O)[C@H](CC(C)C)N(C)C(=O)C[C@@H](C(=O)N2C3CCC2COC3)N(C)C(=O)[C@H](C2CCCC2)N(C)C(=O)C2(CCCC2)NC(=O)[C@@H]2CCCN2C(=O)[C@H](CCc2cc(F)c(C(F)(F)F)c(F)c2)NC(=O)CN(C)C(=O)[C@H](Cc2ccc(C(F)(F)F)cc2)N2CCCCC[C@@H](C2=O)N(C)C(=O)CN(C)C1=O` [PP0511], in test [1] (Single Cycle Kinetics), the Kd came out at 16 nM. Also, the “NRAS /KRAS” value in test [2] (setting [9]) was “A (a compound having 10 or more and less than 20 is denoted as A)”. In test [3] (setting [10]), the “HRAS /KRAS” value is “B (a compound having 3 or more and less than 10 is denoted as B)”. The midpoint of inhibition in test [4], the IC50, lay at 414 nM.
Consider `CCO[C@@H]1C[C@H]2C(=O)NC3(CCC3)C(=O)N(C)[C@@H](C3CCCC3)C(=O)N(C)[C@H](C)CC(=O)N(C)[C@@H](CC(C)C)C(=O)N[C@@H]([C@@H](C)CC)C(=O)N(C)CC(=O)N(C)[C@H]3C/C=C\CCN(C3=O)[C@@H](Cc3ccc(F)cc3C)C(=O)N(C)CC(=O)N[C@@H](CCc3cc(F)c(C(F)(F)F)c(F)c3)C(=O)N2C1` [PP1493], for which, in test [1] (Single Cycle Kinetics), the Kd came out at 2.3 nM. The “NRAS /KRAS” value in test [2] (setting [7]) is “B (a compound having 3 or more and less than 10 is denoted as B)”. Also, the “HRAS /KRAS” value in test [3] (setting [8]) is “B (a compound having 3 or more and less than 10 is denoted as B)”. Moreover, the IC50 in test [4] was determined as 135 nM.
`CCC[C@H]1C(=O)N[C@@H]([C@@H](C)CC)C(=O)N(C)CC(=O)N(C)[C@H]2C/C=C\CCN(C2=O)[C@@H](Cc2ccc(C)cc2)C(=O)N(C)CC(=O)N[C@@H](CCc2ccc(C(F)(F)F)c(OC)c2)C(=O)N2C[C@H](OCC)C[C@H]2C(=O)NC2(CC(C)(C)C2)C(=O)N(C)[C@@H](CC(F)(F)F)C(=O)N(C)[C@H](C(=O)N(C)C)CC(=O)N1C` [PP3007] displayed a Kd in test [1] of 1.3 nM. Moreover, the “NRAS /KRAS” value in test [2] (setting [5]) is “A (a compound having 10 or more and less than 20 is denoted as A)”. Further, in test [3] (setting [6]), the “HRAS /KRAS” value is “A (a compound having 10 or more and less than 20 is denoted as A)”. In test [4], this compound displayed an IC50 of 63.4 nM.
